“And” between values parts separate entries of the source, which are not always exact repeats. Equal values may be shown once. Toxic doses and inconclusive results are not listed.
Test system: P388 leukemia ip, CD2F1 mice, survival T/C
Assay: NCI In Vivo Anticancer Drug Screen. Data for tumor model P388 Leukemia (intraperitoneal) in CD2F1 (CDF1) mice
Details: endpoint: median survival time, higher = longer survival
Procedure, shortened: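 Mice carrying the transplanted tumor received test compound or vehicle. Survival was recorded in each group, and the value is the treated-group measurement divided by that of the vehicle-treated control group.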

[1] = dose: 60.0 mg/kg/injection, schedule: Q01DX005 (ip), vehicle: saline with Tween-80
[2] = dose: 240.0 mg/kg/injection, schedule: Q01DX005 (ip), vehicle: saline with Tween-80
[3] = dose: 50.0 mg/kg/injection, schedule: Q01DX005 (ip), vehicle: saline with Tween-80
[4] = dose: 100.0 mg/kg/injection, schedule: Q01DX005 (ip), vehicle: saline with Tween-80
[5] = dose: 200.0 mg/kg/injection, schedule: Q01DX005 (ip), vehicle: saline with Tween-80
[6] = dose: 120.0 mg/kg/injection, schedule: Q01DX005 (ip), vehicle: saline with Tween-80
[7] = dose: 25.0 mg/kg/injection, schedule: Q01DX009 (ip), vehicle: saline with Tween-80
[8] = dose: 50.0 mg/kg/injection, schedule: Q01DX009 (ip), vehicle: saline with Tween-80
[9] = dose: 100.0 mg/kg/injection, schedule: Q01DX009 (ip), vehicle: saline with Tween-80
[10] = dose: 200.0 mg/kg/injection, schedule: Q01DX009 (ip), vehicle: saline with Tween-80
[11] = dose: 50.0 mg/kg/injection, schedule: Q01DX009 (ip), vehicle: saline
[12] = dose: 100.0 mg/kg/injection, schedule: Q01DX009 (ip), vehicle: saline
[13] = dose: 50.0 mg/kg/injection, schedule: Q01DX009 (ip), vehicle: Klucel (hydroxypropylcellulose) (HPC)
[14] = dose: 100.0 mg/kg/injection, schedule: Q01DX009 (ip), vehicle: Klucel (hydroxypropylcellulose) (HPC)
[15] = dose: 200.0 mg/kg/injection, schedule: Q01DX009 (ip), vehicle: Klucel (hydroxypropylcellulose) (HPC)
[16] = dose: 60.0 mg/kg/injection, schedule: Q01DX005 (ip), vehicle: Klucel (hydroxypropylcellulose) (HPC)
[17] = dose: 120.0 mg/kg/injection, schedule: Q01DX005 (ip), vehicle: Klucel (hydroxypropylcellulose) (HPC)
[18] = dose: 50.0 mg/kg/injection, schedule: Q01DX005 (ip), vehicle: Klucel (hydroxypropylcellulose) (HPC)
[19] = dose: 100.0 mg/kg/injection, schedule: Q01DX005 (ip), vehicle: Klucel (hydroxypropylcellulose) (HPC)
[20] = dose: 25.0 mg/kg/injection, schedule: Q01DX005 (ip), vehicle: saline with Tween-80
[21] = dose: 0.78 mg/kg/injection, schedule: Q01DX009 (ip), vehicle: saline

CCCCOc1ccc(/C=N/NC(=O)CNC(=O)Nc2cccc([N+](=O)[O-])c2)cc1
T/C (dose: 15.0 mg/kg/injection, schedule: Q01DX005 (ip), vehicle: saline with Tween-80): 98 % of control
T/C (dose: 30.0 mg/kg/injection, schedule: Q01DX005 (ip), vehicle: saline with Tween-80): 89 % of control
T/C [1]: 86 % of control and 87 % of control
T/C [2]: 91 % of control

CC(SC(C)C(=O)N/N=C/c1c[nH]c2ccccc12)C(=O)N/N=C\c1c[nH]c2ccccc12 (configuration not stated)
T/C [3]: 92 % of control
T/C [4]: 93 % of control
T/C [5]: 93 % of control

COC(=O)C(CSCc1ccccc1)NC(=O)CCNC(=O)c1ccccc1 (configuration not stated)
T/C (dose: 12.5 mg/kg/injection, schedule: Q01DX009 (ip), vehicle: distilled water + Tween-80): 100 % of control
T/C (dose: 25.0 mg/kg/injection, schedule: Q01DX009 (ip), vehicle: distilled water + Tween-80): 94 % of control
T/C (dose: 50.0 mg/kg/injection, schedule: Q01DX009 (ip), vehicle: distilled water + Tween-80): 98 % of control
T/C (dose: 100.0 mg/kg/injection, schedule: Q01DX009 (ip), vehicle: distilled water + Tween-80): 91 % of control
T/C (dose: 200.0 mg/kg/injection, schedule: Q01DX009 (ip), vehicle: distilled water + Tween-80): 111 % of control

Cc1cc(C)nc(CC(O)c2ccc(C=O)cc2)c1 (configuration not stated)
T/C [1]: 100 % of control
T/C [6]: 94 % of control
T/C [2]: 94 % of control

Clc1ccc(N=Cc2ccc(C=Nc3ccc(Cl)c(Cl)c3)cc2)cc1Cl
T/C [7]: 103 % of control
T/C [8]: 90 % of control
T/C [9]: 88 % of control
T/C [10]: 94 % of control

CC12CCCC(O1)C(C)(C)O2 (configuration not stated)
T/C [11]: 99 % of control
T/C [12]: 89 % of control

CC1N=C(SCc2ccc(Cl)cc2)N2C(C)N=C(SCc3ccc(Cl)cc3)N12 (configuration not stated)
T/C [11]: 112 % of control
T/C [12]: 110 % of control
T/C (dose: 200.0 mg/kg/injection, schedule: Q01DX009 (ip), vehicle: saline): 104 % of control

Nc1nnc2cc(Br)ccc2n1
T/C [13]: 102 % of control
T/C [14]: 99 % of control
T/C [15]: 100 % of control

CCOC(=O)NC12c3ccccc3C(c3ccccc31)C(C(=O)O)C2C(=O)O (configuration not stated)
T/C [9]: 118 % of control
T/C [10]: 118 % of control
T/C (dose: 400.0 mg/kg/injection, schedule: Q01DX009 (ip), vehicle: saline with Tween-80): 118 % of control

O=C1CSC(c2c(F)cccc2Cl)N1c1ncccn1 (configuration not stated)
T/C [16]: 109 % of control
T/C [17]: 111 % of control

Cc1c(C)c(C)c(S(=O)(=O)NCCCNS(=O)(=O)c2c(C)c(C)c(C)c(C)c2C)c(C)c1C
T/C [18]: 98 % of control
T/C [19]: 94 % of control
T/C (dose: 200.0 mg/kg/injection, schedule: Q01DX005 (ip), vehicle: Klucel (hydroxypropylcellulose) (HPC)): 89 % of control

O=C1CC2(CCCCC2)C(=O)N1c1ccc(-c2ccc(N3C(=O)CC4(CCCCC4)C3=O)cc2)cc1
T/C (dose: 100.0 mg/kg/injection, schedule: Q04DX002 (ip), vehicle: Klucel (hydroxypropylcellulose) (HPC)): 89 % of control
T/C (dose: 200.0 mg/kg/injection, schedule: Q04DX002 (ip), vehicle: Klucel (hydroxypropylcellulose) (HPC)): 88 % of control
T/C (dose: 400.0 mg/kg/injection, schedule: Q04DX002 (ip), vehicle: Klucel (hydroxypropylcellulose) (HPC)): 91 % of control

CC1(C)NC(=O)c2c(-c3ccccc3)c(-c3ccccc3)n(-c3ccccc3)c2N1
T/C (dose: 50.0 mg/kg/injection, schedule: Q01DX009 (ip), vehicle: suspension in saline): 96 % of control
T/C (dose: 100.0 mg/kg/injection, schedule: Q01DX009 (ip), vehicle: suspension in saline): 98 % of control
T/C (dose: 200.0 mg/kg/injection, schedule: Q01DX009 (ip), vehicle: suspension in saline): 101 % of control

CC(O)(CSc1ccccc1)CSc1ccccc1 (tested in a mixture with another compound)
T/C [20]: 102 % of control
T/C [3]: 100 % of control
T/C [4]: 98 % of control
T/C [5]: 100 % of control

CC(C)=CCc1cc(O)c(C)cc1O
T/C (dose: 12.5 mg/kg/injection, schedule: Q01DX009 (ip), vehicle: distilled water + Tween-80 + alcohol): 99 % of control
T/C (dose: 25.0 mg/kg/injection, schedule: Q01DX009 (ip), vehicle: distilled water + Tween-80 + alcohol): 91 % of control

c1ccc(CSc2nnc(NC3CCCCC3)s2)cc1
T/C [8]: 96 % of control
T/C [9]: 96 % of control
T/C [10]: 100 % of control

CCCCCCCCCCCCCCCCCSc1c(O)c(O)c2cccnc2c1O (tested in a mixture with another compound)
T/C [16]: 104 % of control
T/C [17]: 105 % of control

O=C(SC(O)c1ccc(Cl)cc1)c1ccccc1 (configuration not stated)
T/C [13]: 99 % of control
T/C [14]: 106 % of control
T/C [15]: 105 % of control

[CH3][Sn]([CH3])([CH3])[Cl]
T/C (dose: 0.19 mg/kg/injection, schedule: Q01DX009 (ip), vehicle: saline): 100 % of control
T/C (dose: 0.39 mg/kg/injection, schedule: Q01DX009 (ip), vehicle: saline): 97 % of control
T/C [21]: 101 % of control

O/N=c1/ccn(O)c2ccccc12
T/C [21]: 161 % of control
T/C (dose: 1.56 mg/kg/injection, schedule: Q01DX009 (ip), vehicle: saline): 171 % of control
T/C (dose: 3.12 mg/kg/injection, schedule: Q01DX009 (ip), vehicle: saline): 204 % of control

CC(=O)CSc1ccc(Cl)cc1
T/C [8]: 99 % of control
T/C [9]: 102 % of control
T/C [10]: 116 % of control

Cc1ccc(OP(=O)(Oc2ccc(C)cc2)Oc2ccc(C)cc2)cc1.Cc1ccc(OP(=O)(Oc2ccc(C)cc2)Oc2ccc(C)cc2)cc1.[Cl][Cu][Cl]
T/C (dose: 12.5 mg/kg/injection, schedule: Q04DX003 (ip), vehicle: Klucel (hydroxypropylcellulose) (HPC)): 99 % of control
T/C (dose: 25.0 mg/kg/injection, schedule: Q04DX003 (ip), vehicle: Klucel (hydroxypropylcellulose) (HPC)): 96 % of control
T/C (dose: 50.0 mg/kg/injection, schedule: Q04DX003 (ip), vehicle: Klucel (hydroxypropylcellulose) (HPC)): 99 % of control

[Cu].[NH-]C1CCCC2CCC[N-]C12.[NH-]C1CCCC2CCC[N-]C12 (configuration not stated)
T/C (dose: 12.5 mg/kg/injection, schedule: Q04DX002 (ip), vehicle: saline with Tween-80): 106 % of control

CCOC1=C(C)N2/C(=C/C(=O)OC)[C@@H]3C[C@@H](C)C[C@]2(O3)S1
T/C [1]: 101 % of control
T/C [6]: 94 % of control
T/C [2]: 104 % of control

CC1CCCN(C(=O)Nc2ccc([N+](=O)[O-])cc2)C1 (configuration not stated)
T/C [8]: 99 % of control
T/C [9]: 94 % of control
T/C [10]: 92 % of control

Cn1c2c(c(=O)n(C)c1=O)Cc1cc(CC(=O)O)ccc1N2
T/C (dose: 100.0 mg/kg/injection, schedule: Q01DX001 (ip), vehicle: saline with Tween-80): 99 % of control
T/C (dose: 200.0 mg/kg/injection, schedule: Q01DX001 (ip), vehicle: saline with Tween-80): 97 % of control
T/C (dose: 400.0 mg/kg/injection, schedule: Q01DX001 (ip), vehicle: saline with Tween-80): 96 % of control

CC1=CCC(C(C)C2CCC3(C)C4=C(C=C5C=CC(=O)OC(C)(C)C5CC4)CCC23C)OC1=O (configuration not stated)
T/C (dose: 12.5 mg/kg/injection, schedule: Q01DX005 (ip), vehicle: other): 108 % of control
T/C (dose: 25.0 mg/kg/injection, schedule: Q01DX005 (ip), vehicle: other): 100 % of control
T/C (dose: 50.0 mg/kg/injection, schedule: Q01DX005 (ip), vehicle: other): 93 % of control
T/C (dose: 100.0 mg/kg/injection, schedule: Q01DX005 (ip), vehicle: other): 91 % of control

CCN1C(C)N1P(=S)(OC1CC(C)(C)N(O)C(C)(C)C1)OC1CC(C)(C)N(O)C(C)(C)C1 (configuration not stated)
T/C [18]: 93 % of control
T/C [19]: 86 % of control

C=COC(=O)C(Cc1ccccc1)NC(=O)OCc1ccccc1 (configuration not stated)
T/C (dose: 12.5 mg/kg/injection, schedule: Q01DX005 (ip), vehicle: saline with Tween-80): 106 % of control
T/C [20]: 100 % of control
T/C [3]: 103 % of control
T/C [4]: 103 % of control
T/C [5]: 100 % of control

C[n+]1ccc(/C=C/c2ccccc2)cc1
T/C [7]: 95 % of control
T/C [8]: 90 % of control
T/C [9]: 95 % of control
T/C [10]: 97 % of control
